Source: PMC11259170, “Small-molecule probe for IBD risk variant GPR65 I231L alters cytokine signaling networks through positive allosteric modulation” (Science Advances, 2024)
pEC50: −log10 of the molar value. Read-outs that look alike come from different tables or passages of the source.

Tests used:
[1] = Comment on solubility in SAR table; format: physicochemical
Excerpt: Supplement sciadv.adn2339_data_s1_to_s4.zip/sciadv.adn2339_data_s2.xlsx, sheet "SAR cAMP Assay"

[2] = target: T1, hGPR65 (Homo sapiens, UniProt Q8IYL9); assay: cAMP detection in HeLa expression cell line, hGPR65; format: cell-based; settings: for Emax: HeLa, read-out: hGPR Max Activity %; for pEC50: SAR cAMP assay, read-out: hGPR EC50
T1 construct: expressed in transfected cells; host or cells: HeLa (ATCC CCL-2), lentiviral transduction, pLX317
T1 sequence (Q8IYL9 whole entry): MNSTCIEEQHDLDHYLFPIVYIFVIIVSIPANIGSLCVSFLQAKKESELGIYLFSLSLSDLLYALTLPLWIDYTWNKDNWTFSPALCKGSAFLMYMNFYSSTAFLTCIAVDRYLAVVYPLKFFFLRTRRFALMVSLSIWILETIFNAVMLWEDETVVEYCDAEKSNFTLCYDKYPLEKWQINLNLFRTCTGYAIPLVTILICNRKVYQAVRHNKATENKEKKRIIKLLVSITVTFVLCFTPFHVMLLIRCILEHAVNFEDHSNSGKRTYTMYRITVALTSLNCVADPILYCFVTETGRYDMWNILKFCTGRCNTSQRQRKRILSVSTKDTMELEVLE
Summary of the method: (§1)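 Lentivirally transduced HeLa, V5-tagged GPCR, puromycin 3 μg/ml. 1500 cells/well, stimulation buffer pH 7.2, compound (10 mM DMSO stock), 30 min RT. Lyse, detection reagents 1 h dark RT. TR-FRET cAMP kit, ex 337, em 620/665.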

[3] = target: T2, mGPR65 (Mus musculus, UniProt Q61038); assay: cAMP detection in HeLa expression cell line, mGPR65; format: cell-based
T2 construct: expressed in transfected cells; host or cells: HeLa (ATCC CCL-2), lentiviral transduction, pLX317
T2 sequence (Q61038 whole entry): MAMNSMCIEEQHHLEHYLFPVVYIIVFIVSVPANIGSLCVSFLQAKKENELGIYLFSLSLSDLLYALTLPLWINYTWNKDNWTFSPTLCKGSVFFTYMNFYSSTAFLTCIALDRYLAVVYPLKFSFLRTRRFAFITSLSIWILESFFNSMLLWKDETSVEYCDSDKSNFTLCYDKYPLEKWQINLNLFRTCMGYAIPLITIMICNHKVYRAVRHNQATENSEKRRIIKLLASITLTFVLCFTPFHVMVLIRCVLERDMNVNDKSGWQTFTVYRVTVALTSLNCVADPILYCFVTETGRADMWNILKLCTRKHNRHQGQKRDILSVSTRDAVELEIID
Summary of the method: as §1

[4] = tested on: GFP-expressing HeLa cells; assay: cAMP detection in HeLa expression cell line, GFP control; format: cell-based, human; settings: for pEC50: SAR cAMP assay
Summary of the method: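 TR-FRET cAMP read-out (Lance Ultra; ex 337 nm, em 620 and 665 nm) after 1 h detection in the dark, following a 30 min RT stimulation of 1500 cells per well in pH 7.2 stimulation buffer with compound supplied as 10 mM DMSO stock. Cells: lentivirally transduced HeLa lines carrying V5-tagged GPCR or GFP, kept under 3 μg/ml puromycin.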

[5] = first pair, relative to 100uM forskolin (100%) and DMSO (0%)
[6] = first EC50/Max pair of hGPR columns
[7] = third pair, relative to 100uM forskolin (100%) and DMSO (0%)

## Cc1ccc(NC(=O)c2cnn3c(O)cc(-c4ccc(-c5ccncc5)cc4)nc23)cc1 [BRD0844]
[1]
  Comments (solubility): Poor solubility.
[2]; [5]
  Emax: 30.3%
[2]; [6]
  pEC50: 5.10

## Cc1ccc(NC(=O)c2cnn3c(O)cc(-c4ccc(-c5cccc(C(C)C)c5)cc4)nc23)cc1 [BRD4922]
[3]; SAR cAMP assay, third EC50/Max pair of mGPR columns, read-out: mGPR EC50
  pEC50: 6.05
[3]; [7]
  mGPR Max Activity: 35.02%
[1]
  Comments (solubility): Poor solubility.
[4]; Homo sapiens, HeLa, second EC50/Max pair of GFP control columns
  pEC50: 5.61
[4]; Homo sapiens, HeLa, third EC50/Max pair of GFP control columns
  pEC50: 5.19
[4]; Homo sapiens, HeLa, second pair, relative to 100uM forskolin (100%) and DMSO (0%), read-out: GFP Max Activity %
  Emax: 0.205%
[4]; [7]
  GFP Max Activity: 1.632%
[2]; [5]
  Emax: 47.3%
[2]; second pair, relative to 100uM forskolin (100%) and DMSO (0%)
  Emax: 51.9%
[2]; [6]
  pEC50: 5.42
[2]; second EC50/Max pair of hGPR columns
  pEC50: 5.85
[2]; third EC50/Max pair of hGPR columns
  pEC50: 6.16
[2]; [7]
  hGPR Max Activity: 55.72%
